14 compounds from patent EP0356192A2, “Prevention & treatment of liver abscesses in animals” (SMITHKLINE BEECHAM CORPORATION, priority 1988, dated 1990) can be followed below.

Converted amounts (≈) assume the structure as drawn. “And” between values parts separate entries of the source, which are not always exact repeats. Equal values may be shown once. Read-outs that look alike come from different tables or passages of the source.

The MIC is the lowest concentration found to suppress growth.

In assay [1] the test system is Fusobacterium necrophorum ATCC 25286. The experiment in a line: MIC by agar dilution method (Wilkins-Chalgren Agar). It is filed as cell-based. The procedure: (§1) In this example, microbiological studies were initiated with Virginiamycin and other antibiotics so as to determine their potency in controlling liver abscesses. As Fusobacterium necrophorum has been associated with bovine liver abscesses in cattle, it was determined that microbiological studies involving this bacterium would be undertaken with representative examples of antibiotics including Virginiamycin.
(§2) The MIC's for Fusobacterium necrophorum was done by the agar dilution method. Two-fold serial dilutions of each compound was incorporated into Wilkins-Chalgren Agar plates. Each Fusobacterium necrophorum was propagated in Peptone-Yeast-Glucose broth and inoculated onto the plates with a multipoint inoculating device. The plates were incubated at 37°C in an atmosphere of 10% H₂, 5% CO₂ and 85% N₂, for 40 hours.

In assay [2] the test system is Fusobacterium necrophorum ATCC 27852. The description is as above. It is filed as cell-based. As for the experimental part: as §1, §2
In assay [3] the test system is Fusobacterium necrophorum. The experiment in a line: MIC of Virginiamycin and ionophores alone and combined at fixed ratios, two-fold serial dilution of a stock solution. The settings on record: for MIC Alone: antibiotic alone; for MIC: Fusobacterium necrophorum, read-out: MIC Alone. It is filed as cell-based. The procedure: In this example, microbiological studies were initiated with combinations of antibiotics from the Virginiamycin family of antibiotics and ionophore family of antibiotics so as to determine their potency in controlling liver abscesses. As Fusobacterium necrophorum has been associated with bovine liver abscess in cattle, it was determined that microbiological studies involving this bacterium would be undertaken. Since the liver abscess etiology is poorly defined, it is difficult to precisely extrapolate these studies to animal disease. […]
Virginiamycin was combined with an antibiotic from the ionophore family in a ratio expected in medicated feeds, eg. Salinomycin at 20 g/Ton and Virginamycin at 15 g/Ton have a ratio of 1.3:1. For the microbilogical studies, a stock solution was made up to contain Salinomycin and Virginiamycin in the same ratio of 1.3:1. The stock solution was serially diluted two fold. The dilutions were incubated with F. necr. The end point was the lowest concentrations antibiotics which inhibited the growth of F. necr., or MIC for minimal inhibitory concentration, eg. the MIC of Salinomycin was 5 µg/ml while that of Virginiamycin was 1 µg/ml.

Assay [4] relates to Fusobacterium necrophorum Colorado Strain. Description: MIC by agar dilution method (Wilkins-Chalgren Agar). The format is cell-based. The procedure: as §1, §2
On the technique in general: In agar dilution the substance is mixed into plates at graded concentrations.

In assay [5] the test system is liver abscess. Description: Incidence of liver abscess at slaughter in cattle fed a ration supplemented with Virginiamycin. The format is in vivo. Conditions: for No. of Animals With Liver Abscess: ad libitum, approximately 120 days, Total Animals 197 (control 26 of 199); for No. of Animals Without Liver Abscess: Total Animals 197. The procedure:
A cattle ration was prepared using the following formula: […]
The ration was supplemented with varying proportions of Virginiamycin and fed, ad libitum, to approximately 200 cattle weighing between 650 lbs. and 850 lbs. The cattle were processed according to standard procedures for the facility, individually weighed and identified. The treatments were continued until the cattle reached an approximate weight of 1100 lbs. (approximately 120 days).
Virginiamycin was added to the ration in the following amounts: Table 2
At slaughter, livers were identified with the individual animal number and scored for liver abscess after examination in the manner required by USDA. Livers were palpated and suspicious area were excised and examined for the presence of liver abscesses.

The subject of assay [6] is Fusobacterium necrophorum (the two ATCC strains). Description: MIC of factors M and S of virginiamycin, one experiment, two ATCC strains taken together. The settings on record: geometric mean for the two ATCC strains. The format is cell-based. The procedure:
as §2
In the one experiment in which factors M and S of virginiamycin were tested, the MICs were 0.35 (geometric mean for the two ATCC strains) and greater than 32 µg/ml, respectively. Virginiamycin contains 75% of Factor M and 25% of Factor S.

Where [7] appears, read: Fusobacterium necrophorum, ATCC25286, 40 h.
The mark [8] stands for this setting: Fusobacterium necrophorum, ATCC27852, 40 h.
Where [9] appears, read: Fasalocid : Virginiamycin, ratio 2:1.
Where [10] appears, read: Fasalocid : Virginiamycin, ratio 3:1.
Where [11] appears, read: Fusobacterium necrophorum, 40 h.
Where [12] appears, read: strain ATCC 25286, 37°C, anaerobic atmosphere, 40 hours, * = geometric mean of more than one determination.
Where [13] appears, read: strain ATCC 27852, 37°C, anaerobic atmosphere, 40 hours, * = geometric mean of more than one determination.
Where [14] appears, read: Ferrensinmycin : Virginiamycin, ratio 1.3:1.

Take `CN(C)[C@@H]1C(O)=C(C(N)=O)C(=O)[C@@]2(O)C(O)=C3C(=O)c4c(O)ccc(Cl)c4[C@@](C)(O)[C@H]3C[C@@H]12` [Chlortetracycline]: the MIC in assay [1] (setting [7]) was found to be 0.02 µg/mL (≈ 0.0418 µM); in assay [2] (setting [8]), 0.12 µg/mL (≈ 0.251 µM).

As to `CC[C@H]1OC(=O)[C@H](C)[C@@H](O[C@H]2C[C@@](C)(OC)[C@@H](O)[C@H](C)O2)[C@H](C)[C@@H](O[C@@H]2O[C@H](C)C[C@H](N(C)C)[C@H]2O)[C@](C)(O)C[C@@H](C)C(=O)[C@H](C)[C@@H](O)[C@]1(C)O` [Erythromycin], the MIC in assay [1] (setting [7]) worked out at 8 µg/mL (≈ 10.9 µM).

As for `CC[C@@H](C(=O)[C@@H](C)[C@@H](O)[C@H](C)CCc1ccc(C)c(O)c1C(=O)O)[C@H]1O[C@](CC)([C@H]2CC[C@](O)(CC)[C@H](C)O2)C[C@@H]1C` [Fasalocid], the results for the “MIC Combination” value in assay [3] (setting [9]) and in assay [3] (setting [10]) were 1 µg/mL and 3 µg/mL, respectively. Further, the “MIC Alone” value in assay [3] is 7 µg/mL and 10 µg/mL.

In the case of `CC[C@@H](C(=O)[C@@H](C)[C@@H](O)[C@H](C)CCc1ccc(C)c(O)c1C(=O)O)[C@H]1O[C@](CC)([C@H]2CC[C@](O)(CC)[C@H](C)O2)C[C@@H]1C` [Lasalocid], the minimum inhibitory concentration (MIC) was determined as 9.1 µg/mL (≈ 15.4 µM) in assay [1] (setting [7]), 12 µg/mL (≈ 20.3 µM) in assay [2] (setting [8]) and 8.5 µg/mL (≈ 14.4 µM) in assay [4] (setting [11]).

Turning to `CC[C@@]1([C@@H]2O[C@@H]([C@H]3O[C@@](O)(CO)[C@H](C)C[C@@H]3C)C[C@@H]2C)CC[C@H]([C@]2(C)CC[C@]3(C[C@H](O)[C@@H](C)[C@@H]([C@@H](C)[C@@H](OC)[C@H](C)C(=O)O)O3)O2)O1` [Monensin], the MIC is 6.4 µg/mL (≈ 9.54 µM) in assay [1] (setting [7]), 3 µg/mL (≈ 4.47 µM) in assay [2] (setting [8]), 4.2 µg/mL (≈ 6.26 µM) in assay [4] (setting [11]) and 4 µg/mL in assay [3].

`CN(C)[C@@H]1C(=O)C(C(N)=O)=C(O)[C@@]2(O)C(=O)C3=C(O)c4c(O)cccc4[C@@](C)(O)[C@H]3[C@H](O)[C@@H]12` [Oxytetracyline, Oxytetracycline]: the minimum inhibitory concentration (MIC) was 0.03 µg/mL (≈ 0.0652 µM) in assay [1] (setting [7]) and 0.25 µg/mL (≈ 0.543 µM) in assay [2] (setting [8]).

Turning to `CC[C@@H](C(=O)[C@@H](C)[C@@H](O)[C@H](C)[C@@H]1O[C@@H]([C@@H](CC)C(=O)O)CC[C@@H]1C)[C@H]1O[C@]2(C=C[C@@H](O)[C@]3(CC[C@@](C)([C@H]4CC[C@](O)(CC)[C@H](C)O4)O3)O2)[C@H](C)C[C@@H]1C` [Salinomycin], the minimal inhibitory concentration (MIC) in assay [1] (setting [7]) was found to be 3.6 µg/mL (≈ 4.79 µM); in assay [2] (setting [8]), 4 µg/mL (≈ 5.33 µM); in assay [4] (setting [11]), 5.7 µg/mL (≈ 7.59 µM); in assay [3], 5 µg/mL. For the same compound, the “decrease in the MIC on combination” value in assay [3] was determined as 250 fold.

With `CC[C@H]1OC(=O)C[C@@H](O)[C@H](C)[C@@H](O[C@@H]2O[C@H](C)[C@@H](O[C@H]3C[C@@](C)(O)[C@@H](O)[C@H](C)O3)[C@H](N(C)C)[C@H]2O)[C@@H](CC=O)C[C@@H](C)C(=O)/C=C/C(C)=C/[C@@H]1CO[C@@H]1O[C@H](C)[C@@H](O)[C@@H](OC)[C@H]1OC` [Tylosin], the minimal inhibitory concentration (MIC) came out at 0.8 µg/mL (≈ 0.873 µM) in assay [1] (setting [7]), 1.4 µg/mL (≈ 1.53 µM) in assay [2] (setting [8]) and 1 µg/mL (≈ 1.09 µM) in assay [4] (setting [11]).

For the compound Avoparcin, the MIC amounted to 32.0 µg/mL in assay [1] (setting [12]) and 64.0 µg/mL in assay [2] (setting [13]).

For the compound Ferrensinmycin, the “MIC Combination” value in assay [3] (setting [14]) amounted to 0.6 µg/mL. The “MIC Alone” value in assay [3] came to 0.5 µg/mL.

Consider Flavomycin, for which the MIC came to 0.25 µg/mL in assay [1] (setting [12]) and 0.12 µg/mL in assay [2] (setting [13]).

As to Virginiamycin, the “No. of Animals With Liver Abscess” value is given as 16 in assay [5] (Vm 9.1 grams/ton in ration), 12 in assay [5] (Vm 22.7 grams/ton in ration) and 6 in assay [5] (Vm 45.5 grams/ton in ration). In addition, the “No. of Animals Without Liver Abscess” value in assay [5] (Vm 9.1 grams/ton in ration) stood at 181; in assay [5] (Vm 22.7 grams/ton in ration) it was 185; in assay [5] (Vm 45.5 grams/ton in ration) it was 191. Further, the “effect on the incidence of liver abscess” value in assay [5] (all dose groups vs control, Chi-Square Goodness of Fit) is “obvious beneficial effect”. Also, the MIC in assay [1] (setting [12]) is on record as 0.9* µg/ml; in assay [2] (setting [13]) it was 1.0* µg/ml; in assay [4] (Colorado Strain, 37°C, anaerobic atmosphere, 40 hours, * = geometric mean of more than one determination), 1.0* µg/ml. Besides, the “effectiveness compared with Tylosin” value in assay [2] (strain ATCC 27852, from MICs) was “twice as effective as Tylosin”. The “MIC Combination” value is 1 µg/mL in assay [3] (setting [9]); 0.9 µg/mL in assay [3] (setting [10]); 0.5 µg/mL in assay [3] (setting [14]); 0.5 µg/mL in assay [3] (Monensin : Virginiamycin, ratio 0.7:1); 0.01 µg/mL in assay [3] (Monensin : Virginiamycin, ratio 2:1); 0.7 µg/mL in assay [3] (Monensin : Virginiamycin, ratio 3:1). Moreover, the “MIC Combination” value in assay [3] (Salinomycin : Virginiamycin, ratio 1:1) was determined as 0.7 µg/mL; in assay [3] (Salinomycin : Virginiamycin, ratio 1.3:1) it was 0.02 µg/mL. Further, in assay [3] (Salinomycin : Virginiamycin, ratio 1.3:1, vs alone), the “decrease in the MIC on combination” value was found to be 50 fold. The “MIC Alone” value in assay [3] worked out at 0.7 µg/mL.

In the case of Virginiamycin factor M, the MIC in assay [1] (setting [12]) is 0.5 µg/mL; in assay [2] (setting [13]), 0.25 µg/mL; in assay [6] it was 0.35 µg/mL.

In the case of Zinc bacitracin, in assay [2] (setting [13]), the MIC came to 9.2 µg/mL.
